According to patent US9427604B2, “Use of benzyloxy-ethylamine derivatives as a preservative, preservation method, and compositions” (L'OREAL, priority 2009, dated 2016):

Key:
Format in all cases: cell-based
Settings in all cases: 7 days at 22° C.
[1] = test system: Candida albicans (Ca) ATCC 10231; assay: Challenge test (artificial contamination) in aqueous solution, C. albicans
Procedure: (§1) The antimicrobial efficacy of compounds of formula (I) was evaluated via the challenge test or artificial contamination method after having introduced said compounds into water. The method of the challenge test consists of an artificial contamination of the sample with microbial strains from collection (bacteria, yeasts and moulds) and of an evaluation of the number of revivable microorganisms seven days after inoculation. […] 5 pure cultures of microorganisms are used. [table] The strains of gram−bacteria (Escherichia coli and Pseudomonas aeruginosa), gram+bacterium (Enterococcus faecalis), yeast (Candida albicans), and mould (Aspergillus niger) are inoculated into subculturing medium, respectively the day before inoculation for the bacteria and the yeast, and 5 days before inoculation for the mould. On the day of inoculation: • a suspension in tryptone salt diluent is prepared, respectively, for the bacteria and the yeast, so as to obtain by spectrophotometer a suspension with an optical density of between 35% and 45% of transmitted light at 544 nm; • for the mould, the spores are collected by washing the agar with 6 to 7 ml of harvesting solution and the suspension is recovered in a sterile tube or flask. After having homogenized the microbial suspension, 0.2 ml of inoculum (the suspensions are used pure: between 1×10^8 and 3×10^8 CFU per ml) are placed in each pill bottle and the microbial suspension is completely homogenized in the 20 g of product (=aqueous solution containing the compounds of formula (I) at the concentrations indicated) using a spatula. The content of microorganisms present in the product corresponds after homogenization to a concentration of 10^6 microorganisms per gram of product, i.e. inoculation to 1% of an inoculum containing 10^8 microorganisms per ml. After 7 days of contact time between the microorganisms and the product at 22° C.±2° C. and in the dark, ten-fold dilutions are carried out and the number of revivable microorganisms remaining in the product is counted.

[2] = test system: Enterococcus faecalis (Ef) ATCC 33186; assay: Challenge test (artificial contamination) in aqueous solution, E. faecalis
Procedure: as §1

[3] = test system: Aspergillus niger (An) ATCC 6275; assay: Challenge test (artificial contamination) in aqueous solution, A. niger
Procedure: as §1

[4] = test system: Pseudomonas aeruginosa (Pa) ATCC 19429; assay: Challenge test (artificial contamination) in aqueous solution, P. aeruginosa
Procedure: as §1

[5] = test system: Escherichia coli (Ec) ATCC 8739; assay: Challenge test (artificial contamination) in aqueous solution, E. coli
Procedure: as §1

[6] = content 1% in water, final pH 6.6, inoculation level 10^6 microorganisms/g
[7] = content 0.01% in water, final pH 7, inoculation level 10^6 microorganisms/g
[8] = content 0.05% in water, final pH 7, inoculation level 10^6 microorganisms/g
[9] = content 0.1% in water, final pH 7.2, inoculation level 10^6 microorganisms/g
[10] = content 0.25% in water, final pH 6.9, inoculation level 10^6 microorganisms/g
[11] = content 0.5% in water, final pH 7.4, inoculation level 10^6 microorganisms/g
[12] = content 0.75% in water, final pH 7.4, inoculation level 10^6 microorganisms/g
[13] = content 1% in water, final pH 7.5, inoculation level 10^6 microorganisms/g

Cl.c1ccc(CNCCOCc2ccccc2)cc1 [Compound B]
No. of CFU/gram of product at T7 days, C. albicans [1, 6]: <200 CFU/gram of product
No. of CFU/gram of product at T7 days, E. faecalis [2, 6]: <200 CFU/gram of product
No. of CFU/gram of product at T7 days, A. niger [3, 6]: <200 CFU/gram of product
No. of CFU/gram of product at T7 days, P. aeruginosa [4, 6]: <200 CFU/gram of product
No. of CFU/gram of product at T7 days, E. coli [5, 6]: <200 CFU/gram of product

Cl.NCCOCc1ccccc1 [Compound A]
No. of CFU/gram of product at T7 days, C. albicans [1, 7]: 3.2 × 10^6 CFU/gram of product
No. of CFU/gram of product at T7 days, C. albicans [1, 8]: 3.0 × 10^6 CFU/gram of product
No. of CFU/gram of product at T7 days, C. albicans [1, 9]: 2.8 × 10^6 CFU/gram of product
No. of CFU/gram of product at T7 days, C. albicans [1, 10]: 2.3 × 10^6 CFU/gram of product
No. of CFU/gram of product at T7 days, C. albicans [1, 11]: 1.3 × 10^6 CFU/gram of product
No. of CFU/gram of product at T7 days, C. albicans [1, 12]: 5.8 × 10^3 CFU/gram of product
No. of CFU/gram of product at T7 days, C. albicans [1, 13]: <200 CFU/gram of product
No. of CFU/gram of product at T7 days, E. faecalis [2, 7]: 4.1 × 10^5 CFU/gram of product
No. of CFU/gram of product at T7 days, E. faecalis [2, 8]: 3.3 × 10^5 CFU/gram of product
No. of CFU/gram of product at T7 days, E. faecalis [2, 9]: 6.9 × 10^4 CFU/gram of product
No. of CFU/gram of product at T7 days, E. faecalis [2, 10]: 1.2 × 10^3 CFU/gram of product
No. of CFU/gram of product at T7 days, E. faecalis [2, 11]: <200 CFU/gram of product
No. of CFU/gram of product at T7 days, E. faecalis [2, 12]: <200 CFU/gram of product
No. of CFU/gram of product at T7 days, E. faecalis [2, 13]: <200 CFU/gram of product
No. of CFU/gram of product at T7 days, A. niger [3, 7]: 1.4 × 10^6 CFU/gram of product
No. of CFU/gram of product at T7 days, A. niger [3, 8]: 1.3 × 10^6 CFU/gram of product
No. of CFU/gram of product at T7 days, A. niger [3, 9]: 1.0 × 10^6 CFU/gram of product
No. of CFU/gram of product at T7 days, A. niger [3, 10]: 1.0 × 10^6 CFU/gram of product
No. of CFU/gram of product at T7 days, A. niger [3, 11]: 6.2 × 10^5 CFU/gram of product
No. of CFU/gram of product at T7 days, A. niger [3, 12]: 1.6 × 10^5 CFU/gram of product
No. of CFU/gram of product at T7 days, A. niger [3, 13]: 3.6 × 10^4 CFU/gram of product
No. of CFU/gram of product at T7 days, P. aeruginosa [4, 7]: 9.0 × 10^6 CFU/gram of product
No. of CFU/gram of product at T7 days, P. aeruginosa [4, 8]: 1.9 × 10^6 CFU/gram of product
No. of CFU/gram of product at T7 days, P. aeruginosa [4, 9]: 1.5 × 10^5 CFU/gram of product
No. of CFU/gram of product at T7 days, P. aeruginosa [4, 10]: 3.0 × 10^3 CFU/gram of product
No. of CFU/gram of product at T7 days, P. aeruginosa [4, 11]: <200 CFU/gram of product
No. of CFU/gram of product at T7 days, P. aeruginosa [4, 12]: <200 CFU/gram of product
No. of CFU/gram of product at T7 days, P. aeruginosa [4, 13]: <200 CFU/gram of product
No. of CFU/gram of product at T7 days, E. coli [5, 7]: 7.4 × 10^6 CFU/gram of product
No. of CFU/gram of product at T7 days, E. coli [5, 8]: 6.2 × 10^6 CFU/gram of product
No. of CFU/gram of product at T7 days, E. coli [5, 9]: 1.9 × 10^6 CFU/gram of product
No. of CFU/gram of product at T7 days, E. coli [5, 10]: 2.8 × 10^3 CFU/gram of product
No. of CFU/gram of product at T7 days, E. coli [5, 11]: <200 CFU/gram of product
No. of CFU/gram of product at T7 days, E. coli [5, 12]: <200 CFU/gram of product
No. of CFU/gram of product at T7 days, E. coli [5, 13]: <200 CFU/gram of product
